Where a name gives a salt, the structure may show the parent alone.

The target in the assay is T1, recombinant sEH (Homo sapiens, UniProt P34913).
T1 construct: made in house; host or cells: Sf9 insect cells
T1 sequence (P34913 1-555): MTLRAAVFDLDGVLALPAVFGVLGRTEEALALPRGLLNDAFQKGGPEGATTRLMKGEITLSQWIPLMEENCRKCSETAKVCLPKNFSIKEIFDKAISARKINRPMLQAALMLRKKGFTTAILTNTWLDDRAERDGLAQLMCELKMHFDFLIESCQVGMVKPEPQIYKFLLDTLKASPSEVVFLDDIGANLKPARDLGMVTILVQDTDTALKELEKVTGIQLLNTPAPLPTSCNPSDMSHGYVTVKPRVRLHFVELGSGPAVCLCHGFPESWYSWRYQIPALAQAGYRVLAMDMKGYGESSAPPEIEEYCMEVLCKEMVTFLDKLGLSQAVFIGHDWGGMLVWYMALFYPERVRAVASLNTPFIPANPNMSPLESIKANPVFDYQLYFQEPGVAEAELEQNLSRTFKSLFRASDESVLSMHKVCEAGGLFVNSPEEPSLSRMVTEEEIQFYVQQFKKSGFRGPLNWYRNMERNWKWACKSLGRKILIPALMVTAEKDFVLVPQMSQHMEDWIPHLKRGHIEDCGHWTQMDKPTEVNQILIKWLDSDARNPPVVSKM
Kind of assay: biochemical screening assay for inhibition of soluble epoxide hydrolase (fluorometric, Phome substrate). The method in brief:
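Reading fluorescence before substrate addition and after completion corrected for autofluorescence. Reaction: 5 μM Phome, 2 nM recombinant human sEH (Sf9-expressed), compound 0.0001–10 μM, 25 mM Hepes with 0.01% albumin, 15 min pre-incubation then 60 min at 30 °C; IC50 derived from % inhibition.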

For the compound `Cc1ncccc1O[C@H]1CO[C@H]2[C@@H]1OC[C@@H]2NC(=O)NC1CCC(F)(F)CC1` [Example 89, 1-(4,4-difluoro-cyclohexyl)-3-[(3S,3aR,6S,6aS)-6-(2-methyl-pyridin-3-yloxy)-hexahydro-furo[3,2-b]furan-3-yl]-urea], the IC50 – broadly, the concentration at which inhibition is half-maximal – came out at 5 nM.

Consider `Cc1ncccc1O[C@H]1CO[C@H]2[C@@H]1OC[C@@H]2NC(=O)NC1CCCC(C(F)(F)F)C1` (stereo partly drawn) [Example 90, 1-[(3S,3aR,6S,6aS)-6-(2-methyl-pyridin-3-yloxy)-hexahydro-furo[3,2-b]furan-3-yl]-3-(3-trifluoromethyl-cyclohexyl)-urea], for which the IC50 was 1 nM.

For the compound `Cc1ncccc1O[C@H]1CO[C@H]2[C@@H]1OC[C@@H]2NC(=O)NC1CCOC(C)C1` (stereo partly drawn) [Example 91, 1-[(3S,3aR,6S,6aS)-6-(2-methyl-pyridin-3-yloxy)-hexahydro-furo[3,2-b]furan-3-yl]-3-(2-methyl-tetrahydro-pyran-4-yl)-urea], the IC50 came out at 22 nM.

As for `CO[C@H]1COCC[C@H]1NC(=O)N[C@H]1CO[C@H]2[C@@H]1OC[C@@H]2Oc1cccnc1C` [Example 93, (R)-1-((R)-3-methoxy-tetrahydro-pyran-4-yl)-3-[(3S,3aR,6S,6aS)-6-(2-methyl-pyridin-3-yloxy)-hexahydro-furo[3,2-b]furan-3-yl]-urea], the IC50 came out at 32 nM.

On to `O=C(N[C@H]1CO[C@H]2[C@@H]1OC[C@@H]2Oc1ccc(F)cc1)N1CCC(F)(F)CC1` [Example 94, 4,4-difluoro-piperidine-1-carboxylic acid [(3S,3aR,6S,6aS)-6-(4-fluoro-phenoxy)-hexahydro-furo[3,2-b]furan-3-yl]-amide], for which the IC50 came out at 2480 nM.

As for `O=C(NC1CCCCC1)N[C@H]1CO[C@H]2[C@@H]1OC[C@@H]2Oc1ccccc1F` [Example 95, 1-Cyclohexyl-3-[(3S,3aR,6S,6aS)-6-(2-fluoro-phenoxy)-hexahydro-furo[3,2-b]furan-3-yl]-urea], the IC50 came out at 5 nM.

Regarding `O=C(NC1CCCCC1)N[C@H]1CO[C@H]2[C@@H]1OC[C@@H]2Oc1cccnc1` [Example 96, 1-Cyclohexyl-3-[(3S,3aR,6S,6aS)-6-(pyridin-3-yloxy)-hexahydro-furo[3,2-b]furan-3-yl]-urea; trifluoroacetate], the IC50 stood at 4 nM.

As for `O=C(NC1CCCCC1)N[C@H]1CO[C@H]2[C@@H]1OC[C@@H]2Oc1cccc(Cl)c1Cl` [Example 97, 1-Cyclohexyl-3-[(3S,3aR,6S,6aS)-6-(2,3-dichloro-phenoxy)-hexahydro-furo[3,2-b]furan-3-yl]-urea], the IC50 was found to be 3 nM.

Take `O=C(NC1CCCCC1)N[C@H]1CO[C@H]2[C@@H]1OC[C@@H]2Oc1ccccc1Cl` [Example 98, 1-[(3S,3aR,6S,6aS)-6-(2-Chloro-phenoxy)-hexahydro-furo[3,2-b]furan-3-yl]-3-cyclohexyl-urea]: the IC50 amounted to 2 nM.

On to `O=C(NC1CCCCC1)N[C@H]1CO[C@H]2[C@@H]1OC[C@@H]2Oc1ccc2cc(Br)ccc2c1` [Example 99, 1-[(3S,3aR,6S,6aS)-6-(6-Bromo-naphthalen-2-yloxy)-hexahydro-furo-[3,2-b]furan-3-yl]-3-cyclohexyl-urea], for which the IC50 amounted to 12 nM.

As for `O=C(NC1CCCCC1)N[C@H]1CO[C@H]2[C@@H]1OC[C@@H]2Oc1cccc(N2CCOCC2)c1` [Example 100, 1-Cyclohexyl-3-[(3S,3aR,6S,6aS)-6-(3-morpholin-4-yl-phenoxy)-hexa-hydro-furo[3,2-b]furan-3-yl]-urea], the IC50 came out at 2 nM.

For `O=C(NC1CCCCC1)N[C@H]1CO[C@H]2[C@@H]1OC[C@@H]2Oc1ccc(C(F)(F)F)cc1` [Example 101, 1-Cyclohexyl-3-[(3S,3aR,6S,6aS)-6-(4-trifluoromethyl-phenoxy)-hexa-hydro-furo[3,2-b]furan-3-yl]-urea], the IC50 amounted to 4 nM.

Take `CC(=O)Nc1cccc(O[C@H]2CO[C@H]3[C@@H]2OC[C@@H]3NC(=O)NC2CCCCC2)c1` [Example 102, N-{3-[(3S,3aS,6S,6aR)-6-(3-Cyclohexyl-ureido)-hexahydro-furo[3,2-b]furan-3-yloxy]-phenyl}-acetamide]: the IC50 worked out at 2 nM.

Consider `CC(C)(C)c1ccc(O[C@H]2CO[C@H]3[C@@H]2OC[C@@H]3NC(=O)NC2CCCCC2)cc1` [Example 103, 1-[(3S,3aR,6S,6aS)-6-(4-tert-Butyl-phenoxy)-hexahydro-furo[3,2-b]furan-3-yl]-3-cyclohexyl-urea], for which the IC50 was found to be 7 nM.

Turning to `O=C(NC1CCCCC1)N[C@H]1CO[C@H]2[C@@H]1OC[C@@H]2Oc1cccc(-c2ccccc2)c1` [Example 104, 1-[(3S,3aR,6S,6aS)-6-(Biphenyl-3-yloxy)-hexahydro-furo[3,2-b]furan-3-yl]-3-cyclohexyl-urea], the concentration for half-maximal inhibition (IC50) came to 5 nM.

As for `O=C(NC1CCCCC1)N[C@H]1CO[C@H]2[C@@H]1OC[C@@H]2Oc1ccc(-c2ccccc2)cc1` [Example 105, 1-[(3S,3aR,6S,6aS)-6-(Biphenyl-4-yloxy)-hexahydro-furo[3,2-b]furan-3-yl]-3-cyclohexyl-urea], the IC50 amounted to 7 nM.

With `CC(=O)c1cccc(O[C@H]2CO[C@H]3[C@@H]2OC[C@@H]3NC(=O)NC2CCCCC2)c1` [Example 106, 1-[(3S,3aR,6S,6aS)-6-(3-Acetyl-phenoxy)-hexahydro-furo[3,2-b]furan-3-yl]-3-cyclohexyl-urea], the IC50 is 3 nM.

Take `O=C(NC1CCCCC1)N[C@H]1CO[C@H]2[C@@H]1OC[C@@H]2Oc1cccc(N2CCCC2=O)c1` [Example 107, 1-Cyclohexyl-3-{(3S,3aR,6S,6aS)-6-[3-(2-oxo-pyrrolidin-1-yl)-phenoxy]-hexahydro-furo[3,2-b]furan-3-yl}-urea]: the IC50 amounted to 2 nM.

Regarding `O=C(NC1CCCCC1)N[C@H]1CO[C@H]2[C@@H]1OC[C@@H]2Oc1cccc(C2CCNCC2)c1` [Example 108, 1-Cyclohexyl-3-[(3S,3aR,6S,6aS)-6-(3-piperidin-4-yl-phenoxy)-hexahydro-furo[3,2-b]furan-3-yl]-urea; trifluoroacetate], the IC50 stood at 23 nM.

For `O=C(NC1CCCCC1)N[C@H]1CO[C@H]2[C@@H]1OC[C@@H]2Oc1ccc(Oc2ccccn2)cc1` [Example 109, 1-Cyclohexyl-3-{(3S,3aR,6S,6aS)-6-[4-(pyridin-2-yloxy)-phenoxy]-hexa-hydro-furo[3,2-b]furan-3-yl}-urea], the IC50 is 1 nM.

With `O=C(NC1CCCCC1)N[C@H]1CO[C@H]2[C@@H]1OC[C@@H]2Oc1ccccc1C(=O)N1CCCC1` [Example 110, 1-Cyclohexyl-3-{(3S,3aR,6S,6aS)-6-[2-(pyrrolidine-1-carbonyl)-phenoxy]-hexahydro-furo[3,2-b]furan-3-yl}-urea], the IC50 came to 140 nM.

Take `COC(=O)c1cncc(O[C@H]2CO[C@H]3[C@@H]2OC[C@@H]3NC(=O)NC2CCCCC2)c1` [Example 111, 5-[(3S,3aS,6S,6aR)-6-(3-Cyclohexyl-ureido)-hexahydro-furo[3,2-b]furan-3-yloxy]-nicotinic acid methyl ester]: the IC50 amounted to 1 nM.

As for `O=C(NC1CCCCC1)N[C@H]1CO[C@H]2[C@@H]1OC[C@@H]2Oc1ccc(-n2cncn2)cc1` [Example 112, 1-Cyclohexyl-3-[(3S,3aR,6S,6aS)-6-(4-[1,2,4]triazol-1-yl-phenoxy)-hexahydro-furo[3,2-b]furan-3-yl]-urea; trifluoroacetate], the IC50 was determined as 1 nM.

In the case of `CC(=O)Nc1ccc(O[C@H]2CO[C@H]3[C@@H]2OC[C@@H]3NC(=O)NC2CCCCC2)cc1` [Example 113, N-{4-[(3S,3aS,6S,6aR)-6-(3-Cyclohexyl-ureido)-hexahydro-furo[3,2-b]furan-3-yloxy]-phenyl}-acetamide], the IC50 amounted to 3 nM.

`CC1(C)CC(=O)c2cc(O[C@H]3CO[C@H]4[C@@H]3OC[C@@H]4NC(=O)NC3CCCCC3)ccc2O1` [Example 114, 1-Cyclohexyl-3-[(3S,3aR,6S,6aS)-6-(2,2-dimethyl-4-oxo-chroman-6-yloxy)-hexahydro-furo[3,2-b]furan-3-yl]-urea]: the half-maximal inhibitory concentration (IC50) was found to be 4 nM.

`O=C(NC1CCCCC1)N[C@H]1CO[C@H]2[C@@H]1OC[C@@H]2Oc1ccccc1` [Example 115, 1-Cyclohexyl-3-((3S,3aR,6S,6aS)-6-phenoxy-hexahydro-furo[3,2-b]furan-3-yl)-urea]: the IC50 came out at 3 nM.

Consider `CC(C)(C)Oc1ccc(O[C@H]2CO[C@H]3[C@@H]2OC[C@@H]3NC(=O)NC2CCCCC2)cc1` [Example 116, 1-[(3S,3aR,6S,6aS)-6-(4-tert-Butoxy-phenoxy)-hexahydro-furo[3,2-b]furan-3-yl]-3-cyclohexyl-urea], for which the IC50 was 3 nM.

Consider `N#CCc1cccc(O[C@H]2CO[C@H]3[C@@H]2OC[C@@H]3NC(=O)NC2CCCCC2)c1` [Example 117, 1-[(3S,3aR,6S,6aS)-6-(3-Cyano-methyl-phenoxy)-hexahydro-furo-[3,2-b]furan-3-yl]-3-cyclohexyl-urea], for which the IC50 turned out to be 5 nM.

Take `O=C(NC1CCCCC1)N[C@H]1CO[C@H]2[C@@H]1OC[C@@H]2Oc1ccc2c(c1)C(=O)CC2` [Example 118, 1-Cyclohexyl-3-[(3S,3aR,6S,6aS)-6-(3-oxo-indan-5-yloxy)-hexahydro-furo[3,2-b]furan-3-yl]-urea]: the IC50 was 3 nM.

For the origin of these results see US9540391B2, “Isomannide derivatives as inhibitors of soluble epoxide hydrolase” (SANOFI, priority 2013, dated 2017).
